Consider one compound from patent US6855512B2, “Methods for identifying inhibitors of cytochrome P450RAI” (Allergan, Inc., priority 2000, dated 2005).

The target of test [1] is T1, RARα (Homo sapiens, UniProt P10276).
T1 sequence (P10276 183-417 limits assumed): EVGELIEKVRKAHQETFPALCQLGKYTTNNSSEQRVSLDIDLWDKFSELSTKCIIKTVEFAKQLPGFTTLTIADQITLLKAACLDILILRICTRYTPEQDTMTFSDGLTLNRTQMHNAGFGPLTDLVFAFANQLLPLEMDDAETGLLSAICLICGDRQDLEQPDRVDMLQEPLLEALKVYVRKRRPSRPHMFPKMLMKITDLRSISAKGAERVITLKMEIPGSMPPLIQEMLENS
The test can be described thus: chimeric receptor transactivation assay, RARα. The settings on record: EC50 line of EC50/(EFFICACY)/Kd, read-out: RAR α EC50. It is filed as cell-based. The text has this:
(§1) Assays described below measure the ability of a compound to bind to, and/or activate various retinoid receptor subtypes. When in these assays a compound binds to a given receptor subtype and activates the transcription of a reporter gene through that subtype, then the compound is considered an agonist of that receptor subtype. […] In the below described assays the ability of the compounds to bind to RARα, RARβ, RARγ, RXRα, RXRβ and RXRγ receptors, and the ability or inability of the compounds to activate transcription of a reporter gene through these receptor subtypes can be tested.
(§2) The results obtained in this assay are expressed in EC50 numbers, as they are also in the chimeric receptor transactivation assay. The results of ligand binding assay are expressed in Kd numbers.

Test [2] has as its target T2, RARα (Homo sapiens, UniProt P10276).
T2 sequence (P10276 1-462): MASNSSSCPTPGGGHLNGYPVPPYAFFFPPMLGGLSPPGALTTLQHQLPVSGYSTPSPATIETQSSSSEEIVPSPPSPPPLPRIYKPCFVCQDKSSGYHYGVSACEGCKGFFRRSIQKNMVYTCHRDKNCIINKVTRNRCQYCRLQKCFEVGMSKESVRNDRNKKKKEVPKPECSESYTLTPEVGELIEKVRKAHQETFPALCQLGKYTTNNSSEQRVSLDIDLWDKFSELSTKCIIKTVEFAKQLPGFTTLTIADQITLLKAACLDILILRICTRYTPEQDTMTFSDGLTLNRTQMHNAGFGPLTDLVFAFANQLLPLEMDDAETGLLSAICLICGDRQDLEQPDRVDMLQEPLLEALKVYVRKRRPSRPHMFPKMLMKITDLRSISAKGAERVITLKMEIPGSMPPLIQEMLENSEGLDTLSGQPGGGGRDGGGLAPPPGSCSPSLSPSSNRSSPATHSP
The test can be described thus: ligand binding assay, RARα. The settings on record: Kd line of EC50/(EFFICACY)/Kd, K = thousand, read-out: RAR α Kd.
Text: as §1, §2

Test [3] concerns the target T3, RARγ (Homo sapiens, UniProt P13631).
T3 sequence (P13631 185-454 limits assumed): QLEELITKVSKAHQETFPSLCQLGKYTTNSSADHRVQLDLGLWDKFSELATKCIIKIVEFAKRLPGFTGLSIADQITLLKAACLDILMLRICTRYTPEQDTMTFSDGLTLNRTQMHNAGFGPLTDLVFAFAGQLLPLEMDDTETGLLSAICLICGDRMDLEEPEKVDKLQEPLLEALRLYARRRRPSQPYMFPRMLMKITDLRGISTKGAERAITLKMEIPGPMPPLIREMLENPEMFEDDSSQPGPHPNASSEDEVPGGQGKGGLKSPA
The test can be described thus: chimeric receptor transactivation assay, RARγ. The format is cell-based. As to conditions: EC50 line of EC50/(EFFICACY)/Kd, read-out: RAR γ EC50.
Text: as §1, §2

For test [4], the target named is T4, RARβ (Homo sapiens, UniProt P10826).
T4 sequence (P10826 183-417 limits assumed): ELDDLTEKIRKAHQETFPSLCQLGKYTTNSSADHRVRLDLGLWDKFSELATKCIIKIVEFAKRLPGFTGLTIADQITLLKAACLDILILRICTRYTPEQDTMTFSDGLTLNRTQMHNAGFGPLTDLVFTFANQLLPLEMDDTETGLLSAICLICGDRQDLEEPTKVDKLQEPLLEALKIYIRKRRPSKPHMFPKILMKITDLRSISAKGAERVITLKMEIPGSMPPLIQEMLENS
The experiment in a line: chimeric receptor transactivation assay, RARβ. The format is cell-based. As to conditions: EC50 line of EC50/(EFFICACY)/Kd, read-out: RAR β EC50.
Text: as §1, §2

The target in test [5] is T5, RARγ (Homo sapiens, UniProt P13631).
T5 sequence (P13631 1-454): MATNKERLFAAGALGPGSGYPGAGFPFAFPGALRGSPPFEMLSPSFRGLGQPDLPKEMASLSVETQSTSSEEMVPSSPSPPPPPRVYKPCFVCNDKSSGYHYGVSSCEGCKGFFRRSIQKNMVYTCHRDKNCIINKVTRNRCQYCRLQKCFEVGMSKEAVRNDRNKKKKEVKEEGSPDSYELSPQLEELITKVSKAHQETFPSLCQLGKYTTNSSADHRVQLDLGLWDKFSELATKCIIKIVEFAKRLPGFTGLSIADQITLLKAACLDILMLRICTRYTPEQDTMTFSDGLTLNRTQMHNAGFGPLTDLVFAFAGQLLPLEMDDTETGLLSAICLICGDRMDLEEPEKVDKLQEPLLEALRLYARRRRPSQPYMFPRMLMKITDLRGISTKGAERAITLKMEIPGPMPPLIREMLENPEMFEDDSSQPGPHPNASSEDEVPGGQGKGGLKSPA
The experiment in a line: ligand binding assay, RARγ. The settings on record: Kd line of EC50/(EFFICACY)/Kd, K = thousand, read-out: RAR γ Kd.
Text: as §1, §2

Test [6] concerns the target T6, RARβ (Homo sapiens, UniProt P10826).
T6 sequence (P10826 1-455): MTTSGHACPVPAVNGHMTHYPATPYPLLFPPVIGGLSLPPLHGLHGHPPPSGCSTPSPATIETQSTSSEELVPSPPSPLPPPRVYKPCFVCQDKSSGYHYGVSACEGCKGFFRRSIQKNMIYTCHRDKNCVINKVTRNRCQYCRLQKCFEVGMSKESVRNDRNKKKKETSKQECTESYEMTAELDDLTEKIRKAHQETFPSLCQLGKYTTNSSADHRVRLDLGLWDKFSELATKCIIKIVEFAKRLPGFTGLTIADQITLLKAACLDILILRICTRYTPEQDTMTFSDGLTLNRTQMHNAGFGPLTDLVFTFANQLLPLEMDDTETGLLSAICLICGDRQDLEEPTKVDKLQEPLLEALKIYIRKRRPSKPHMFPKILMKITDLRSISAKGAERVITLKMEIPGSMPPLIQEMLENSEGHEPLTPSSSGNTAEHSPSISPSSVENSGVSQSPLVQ
The experiment in a line: ligand binding assay, RARβ. The settings on record: Kd line of EC50/(EFFICACY)/Kd, K = thousand, read-out: RAR β Kd.
Text: as §1, §2

Take `CC1(C)CCSc2ccc(C#Cc3ccc(CCC(=O)O)cc3)cc21` [Compound 210]: the EC50 at RARα [1] was 0.089 µM; at RARγ [3], 0.015 µM; on RARβ [4] it was 0.018 µM. Also, the dissociation constant (Kd) on RARα [2] turned out to be 10 µM; at RARγ [5], 10 µM; on RARβ [6] it was 2.89 µM.

For orientation: EC50 means the concentration needed to bring the measured effect to its halfway point. For orientation: Kd means the constant that tells how readily two partners part at equilibrium.
